# From patent publication US6573050B1, “Treatment, diagnosis and evaluation of anti-cancer therapy resistance in melanoma” (Sunnybrook & Women's College Health Sciences Centre, priority 1999, dated 2003)
# Like-named read-outs stand apart in the source and are kept apart here.
# Key:
# [1] = test system: Clone E and Clone G cells vs WM35 cells
# Method: (§8) Cytotoxicity Assay. The number of viable cells following a treatment was assessed using the CellTiter™ 96 Aqueous Non-Radioactive MTS Cell Proliferation Assay (Promega). Briefly, 1×10^4 cells/well were plated in 96-well plates, allowed to attach overnight and then administered therapeutic agents at various levels for 24 hours. Four hours prior to harvest, MTS/phenazine methosulfate was added to the cells and the number of variable cells was determined by measuring the quantity of formazan by spectrophotometric analysis at 490 nm.
# (§9) The indicated cell lines were cultured in 96 well plates at a density of 8×10^3 cells per well and treated for 24 hours with either A) carboplatin; B) taxol; or C) methotrexate, at the indicated concentrations. Cell viabilities were determined using the MTS assay (Promega), measuring the cellular conversion of the tetrazolium salt, MTS, into formula which can be quantified at 490 nm.
# 1552C cells = test: MTS cytotoxicity assay, CDDP treatment; assay type: cell-based, human; conditions: 15 μM CDDP, 24 hours, MTS assay (FIG. 9)
# Method: (§1) Cells and Culture Conditions. All human melanoma cell lines were generously provided by Dr. Meenhard Herlyn (Wistar Institute, Philadelphia, Pa.). The CDDP-resistant variants of WM35 (designated as Clone A to Clone I) were established by retroviral insertioual mutagenesis of WM35 cells as described previously (Lu et al. (1995) Cancer Res. 55:1139-1145). Cells were routinely maintained in RPMI 1640 (Life Technologies) supplement with 5% FBS (Life Technologies) at 37° C. in a humidified atmosphere of 95% air; 5% CO2.
# (§2) FIG. 9 illustrates the response of melanoma cell lines to CDDP treatment. Each of the cell lines indicated were plated in 96-well plates at a density of 1×10^5 cells/well and treated with 15 μM CDDP for 24 hours. Percentage of viable cells were determined by the MTS assay. […] The levels TYRP2 expression in these cells directly correlated with their resistance to CDDP treatment (15 μM CDDP, 24 hours). For example, the cell line WM9, which expresses very low levels of TYRP2 was very sensitive to CDDP treatment (<20% of cells survived). Conversely, the cell lines WM451 and MeWo, for example, which express high levels of TYRP2 were resistant to CDDP treatment (approximately 80% of cells survived).
# WM1341B cells = test: MTS cytotoxicity assay, CDDP treatment; assay type: cell-based, human; conditions: 15 μM CDDP, 24 hours, MTS assay (FIG. 9)
# Method: as §1, §2
# WM373 cells = test: MTS cytotoxicity assay, CDDP treatment; assay type: cell-based, human; conditions: 15 μM CDDP, 24 hours, MTS assay (FIG. 9)
# Method: as §1, §2
# WM451 cells = test: MTS cytotoxicity assay, CDDP treatment; assay type: cell-based, human; conditions: 15 μM CDDP, 24 hours, MTS assay (FIG. 9)
# Method: as §1, §2
# WM9 cells = test: MTS cytotoxicity assay, CDDP treatment; assay type: cell-based, human; conditions: 15 μM CDDP
# Method: as §1, §2
# (§3) To determine the correlation between levels of TYRP2 expression and CDDP resistance, the cells assessed in the UV(B) survival assay as shown in Table 2 were further assessed for resistance to CDDP. Cells were plated in 96-well plates and treated with 15 μM CDDP. After a 24 hour incubation, cell viability was determined by the MTS assay.
# MeWo cells = test: MTS cytotoxicity assay, CDDP treatment; assay type: cell-based, human; conditions: 15 μM CDDP
# Method: as §1, §2, §3
# [2] = test system: Clone E cells (CDDP-resistant variant of WM35); test: MTS cytotoxicity assay, CDDP treatment; assay type: cell-based, human; conditions: 15 μM CDDP
# Method: as §1, §2, §3
# [3] = test system: XR9 cells (x-ray resistant variant of WM35); test: MTS cytotoxicity assay, CDDP treatment; assay type: cell-based, human; conditions: 15 μM CDDP, 24 hour incubation, mean ± SEM, n=3
# Method: Gamma radiation resistant mutant cell lines were selected using retroviral insertional mutagenesis, with selection based on resistance to gamma radition. X-ray resistant mutant cell lines, designated as “XR” were established.
# as §3
# WM35 cells [4] = test: MTS cytotoxicity assay, CDDP treatment; assay type: cell-based, human; conditions: 15 μM CDDP, 24 hour incubation, mean ± SEM, n=3
# Method: as §1, §3
# WM35 cells [5] = test: PARP cleavage, Western blot (apoptosis); assay type: cell-based, human; conditions: 15 μM CDDP, as early as
# Method: (§4) SDS-PAGE and Western Blot Analysis. Cell lysates were prepared using lysis buffer consisting of 50 mM Tris, pH 7.4, 50 mM NaCl, 2 mM MgCl2, 1 mM EDTA, 05% IDEPAL CA-630 and protease inhibitors (0.1 mM PMSF, 100 μM sodium vanadate, 20 μg/ml leupeptin, 20 mM […], 1 mM benzamide). Protein concentrations were determined by the Bradford assay (BioRad Laboratories) and equivalent quantities of protein (25 μg) were resolved by SDS-polyacrylamide gel electrophoresis (Laemmli (1970) Nature, 227, 680-685). […] Membranes were then incubated with a horseradish-peroxidase conjugated goat anti-rabbit antibody (1:5000 dilution) and immunoreactive sites were detected by enhanced chemiluminescence (Amersham). […]
# (§5) The mechanism of action of CDDP, as well as other DNA alkylating agents ultimately involves generation of DNA damage and subsequently the induction of apoptosis. In order to determine if the increased resistance to CDDP in the retrovirally derived clones was associated with a reduction in CDDP-induced apoptosis, the levels of apoptosis in one of these clones (Clone E) relative to its parental WM35 cells were determined following treatment with 15 μM CDDP.
# (§6) Increased cleavage of poly-ADP-ribose-polymerase (PARP) from the 116 kDa to the smaller 84 kDa subunit in WM35 cells was detected as early as 6 bours following 15 μM CDDP treatment. […]
# Clone E cells = test: PARP cleavage, Western blot (apoptosis); assay type: cell-based, human; conditions: 15 μM CDDP, up to 24 hours
# Method: as §4, §5, §6
# MeWo derived tumors = test: MeWo tumors in immunodeficient CD-1 nude mice, CDDP treatment; assay type: in vivo; conditions: CDDP 2 mg/kg/2 days
# Method: (§7) In order to determine the significance of TYRP2-mediated CDDP resistance in vivo, tumors were generated in immunodeficient CD-1 mice by subcutaneous injection of 2×10^6 cells of either MeWo or WM9. WM35 cells were not used for in vivo studies because they lack tumorigenicity (Bani et al. (1996) Cancer Res. 56:3075-3086). […] Mice bearing these tumors were treated with CDDP three times weekly at a dose of 2 mg/kg.
# FIG. 12 illustrates the correlation between TYRP2 expression and CDDP resistance in vivo. Tumors were generated in immunodeficient CD-1 nude mice by subdermally injecting MeWo cells.
# [6] = test system: WM35 cells vs Clone E cells; test: DNA fragmentation assay, Cell Death Detection ELISA; assay type: cell-based, human; conditions: 15 μM CDDP, 18 hours
# Method: DNA Fragmentation Assay. Levels of apoptosis were determined by quantifying DNA fragmentation using the Cell Death Detection ELISA Plus kit (Boehringer Mannheim). Briefly, cells were plated in 96-well plates at a density of 1×10^4 cells/well and allowed to attach overnight. Cells were treated with 15 μM CDDP for 18 hours and then lysed. Cell lysates were transferred to streptavidin-coated plates and used for ELISA analysis using anti-bistone-biotin and anti-DNA POD antibodies.
# FIG. 2 illustrates DNA fragmentation analysis by ELISA using antibodies that recognize mono- and oligonucleotide fragments. Mono- and oligo-nucleosomes in the DNA of WM35 cells treated with 15 μM CDDP for 18 hours, were detected with a Cell Death ELISA Detection Kit (Boehringer Mannheim). The production of DNA 180 bp multimers was approximately 5 times greater in WM35 cells than in Clone E cells.
# WM9 derived tumors = test: WM9 tumors in immunodeficient CD-1 nude mice, CDDP treatment; assay type: in vivo; conditions: CDDP 2 mg/kg/2 days
# Method: as §7
# FIG. 13 illustrates the correlation between TYRP2 expression and CDDP resistance in vivo in WM9 cells. Tumors were generated in immunodeficient CD-1 nude mice by subdermally injecting WM9 cells. […] By day 18 of treatment, the tumors in 2 of 5 mice had completely disappeared.
# [7] = test system: Clone E and Clone G cells vs WM35 cells; test: CDDP resistance of retrovirally derived clones compared to parental WM35; assay type: cell-based, human; conditions: approximately
# Method: as §1
# This technique of retroviral insertional mutagenesis was applied on WM35 cells, an early stage CDDP sensitive human melanoma cell line. WM35 cells were infected with a replication defective amphotrophic murine stein cell virus (MSCV) retrovirus and the pooled cells were subsequently selected for CDDP resistance.
# From this technique, nine independently derived clones, Clone A to Clone I, were obtained. […] Since changes in tumor sensitivities in the range of 2-5 fold can account for loss of tumor responsiveness to anti-cancer therapeutic drugs, this difference could be clinically significant (Kuroda et al. (1991) Int. J. Cancer 47:732-737).
# [8] = test system: Clone E and Clone G cells vs WM35 cells; test: Cross resistance of CDDP-resistant clones, MTS assay; conditions: 24 hours treatment, various concentrations, MTS assay (FIG. 3)
# Method: as §8, §9
# [9] = 24 hour incubation, MTS assay, mean ± SEM, n=3
compound,measurement,setting,value
CN(Cc1cnc2nc(N)nc(N)c2n1)c1ccc(C(=O)N[C@@H](CCC(=O)O)C(=O)O)cc1 [methotrexate],resistance of Clone E and Clone G to cytotoxic effects compared to WM35 cells,[1],more resistant
"N.N.[Cl][Pt][Cl] [CDDP, cis-diamminedichloroplatinum(II)]",sensitivity to CDDP treatment,1552C cells,highly sensitive
same,survival compared to WM35 cells,WM1341B cells,substantially higher survival
same,survival compared to WM35 cells,WM373 cells,substantially higher survival
same,% of cells survived,WM451 cells,approximately 80%
same,% Survival,WM9 cells; [9],13.8 ± 1.6%
same,% of cells survived,"WM9 cells; 24 hours, MTS assay (FIG. 9)",< 20%
same,% Survival,MeWo cells; [9],77.0 ± 5.3%
same,% of cells survived,"MeWo cells; 24 hours, MTS assay (FIG. 9)",approximately 80%
same,% Survival,[2]; [9],77.4 ± 6.7%
same,survival compared to WM35 cells,"[2]; 24 hours, MTS assay (FIG. 9)",substantially higher survival
same,% Survival,[3],82.4 ± 1.7%
same,% Survival,WM35 cells [4],52.6 ± 4.4%
same,time at which increased PARP cleavage (116 kDa to 84 kDa subunit) was detected,WM35 cells [5],6 bours
same,increased levels of PARP cleavage,Clone E cells,not evident
same,"growth rates of tumors, CDDP treated vs saline treated mice",MeWo derived tumors,did not differ
same,"production of DNA 180 bp multimers, WM35 cells relative to Clone E cells",[6],approximately 5 times
same,growth rates of tumors relative to saline treated controls,WM9 derived tumors,significant reduction in growth rates
same,mice whose tumors had completely disappeared,WM9 derived tumors; by day 18 of treatment,2 of 5
same,increase in CDDP resistance compared to parental WM35 cells,[7],2 to 3 fold
CC(=O)O[C@H]1C(=O)[C@@]2(C)[C@H]([C@H](OC(=O)c3ccccc3)[C@]3(O)C[C@H](OC(=O)[C@H](O)[C@@H](NC(=O)c4ccccc4)c4ccccc4)C(C)=C1C3(C)C)[C@]1(OC(C)=O)CO[C@@H]1C[C@@H]2O [taxol],resistance of Clone E and Clone G to cytotoxic effects compared to WM35 cells,[1],equally sensitive
N.N.O=C([O-])C1(C(=O)[O-])CCC1.[Pt+2] [carboplatin],resistance of Clone E and Clone G to cytotoxic effects compared to WM35 cells,[8],more resistant
